Data reported in patent US7601739B2, “Compounds having antiestrogenic and tissue selective estrogenic properties, and compounds with anti-androgenic properties for treatment of prostate cancer and androgen receptor dependent diseases” (Virgina Commonwealth University, priority 2006, dated 2009).

Key:
[1] = test system: hER; test: Fluorescence-based competitive binding assay for hER (displacement of fluormone ES2); parameters: species or system human; conditions: for Relative Binding Affinity: RBA = IC50 of tamoxifen/IC50 of test molecule, tamoxifen set at 1
Description: The estrogen receptor competitor assay kits (Panvera, Madison, Wis.) were used to determine the ability of test molecules to displace the fluormone, ES2, from hER -ES2 or hER -ES2 complex. Serial dilutions of each test molecule were prepared in methanol or DMSO. The recombinant hER or hER (7 nM) was preincubated with ES2 (1 nM) in screening buffer. After the preincubation, the test molecules and ER-ES2 complex solution were added into the 96-well microplate to produce a final volume of 100 μl per well. The reaction was incubated at room temperature for 1 hr and the polarization values were measured by using fluorescence microplate reader, Polarion (Tecan, Research Triangle Park, N.C.) with excitation wavelength 495 nm and emission wavelength 535 nm. The polarization value versus test molecule concentration curves was analyzed by graphfit software to generate IC50 values.
In this assay, recombinant hER and the commercial synthetic estrogen, ES2 containing fluorescence polarization property, are used. This assay is a homogenous assay. When the assay solution only contains ES2, the solution exerts weak fluorescence polarization property due to the quick rotation of free ES2 molecule. […] Addition of the antiestrogen to the ES2/hER displaces ES2 from hER and results in the whole solution exerting less fluorescence polarization property than the solution without antiestrogen.

[2] = test system: MCF-7 cells; test: hERα positive breast cancer cell proliferation assay; type: cell-based, human; conditions: for activity at 5 µM: Homo sapiens, MCF7, 72 h, MCF-7 cells, DMSO = 1, read-out: Relative Cancer Cell Proliferation Effects at 5 μM
Description: MCF-7 or MDA-MB-231 cells were inoculated into 12-well culture plates at 10000 cells in 2 ml maintained medium per well. Cells were allowed to attach to the bottom for 24 hrs incubation, then the seeding medium was removed and replaced by the experimental medium (phenol red-free DMEM supplemented with 5% charcoal-stripped fetal bovine serum and Penicillin (100 unit/ml)/Streptomycin ([…])). After 24 hr incubation, the test molecules dissolved in DMSO were added in the wells. […] The culture was continued for 3 days and the medium and tested compounds were replaced every two days. The final cell numbers were estimated with CellTiter proliferation assay kit (Promega, Madison, Wis.) by measuring the absorbance at 570 nm, which is directly proportional to the number of living cells in the culture.
MCF-7 cell line was used to perform this assay and the description of this assay as mentioned above. […] DMSO was used as reference.

[3] = biological target: T1, hERα (Homo sapiens, UniProt P03372); test: Transient transfection reporter assay for hERα in MCF-7 cells; type: cell-based; parameters: Relative Estrogenic Activity: dose or concentration left out as unconfirmed; conditions: for Relative Estrogenic Activity: MCF-7 cells transfected with hERα, DMSO set as 1; for estrogenic effect: MCF-7 cells, hERα, compared with DMSO and tamoxifen; for Relative Antiestrogenic Activity at 2.5 μM: with 1 nM estradiol, 1 nM E2 used as reference (1); for antiestrogenic / inhibition activity: against 1 nM estrogen
T1 construct: mammalian expression plasmid containing full length human ER cDNA, pCMV-hER; expressed in transfected cells; host or cells: MCF-7 human breast cancer cells
T1 sequence (P03372 1-595): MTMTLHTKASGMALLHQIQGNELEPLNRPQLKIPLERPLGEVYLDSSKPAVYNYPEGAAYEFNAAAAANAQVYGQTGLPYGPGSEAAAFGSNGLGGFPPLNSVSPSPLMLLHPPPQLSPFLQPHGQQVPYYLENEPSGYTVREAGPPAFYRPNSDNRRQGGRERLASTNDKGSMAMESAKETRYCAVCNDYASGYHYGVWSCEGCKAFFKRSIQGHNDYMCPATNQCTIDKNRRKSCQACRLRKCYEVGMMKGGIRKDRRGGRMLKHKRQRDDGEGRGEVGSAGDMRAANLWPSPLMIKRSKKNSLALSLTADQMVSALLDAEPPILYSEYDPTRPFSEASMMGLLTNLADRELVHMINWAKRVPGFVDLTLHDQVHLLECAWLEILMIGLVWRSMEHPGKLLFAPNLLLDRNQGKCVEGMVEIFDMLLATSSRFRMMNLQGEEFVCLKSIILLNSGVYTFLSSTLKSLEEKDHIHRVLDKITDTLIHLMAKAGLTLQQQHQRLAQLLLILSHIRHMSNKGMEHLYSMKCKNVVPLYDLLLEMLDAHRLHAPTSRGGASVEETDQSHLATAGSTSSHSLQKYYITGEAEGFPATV
Description: For the transient transfection reporter assays, the cells were plated in triplicate in 12-well plates at a density of 300000 cells/well in the phenol red-free DMEM (GIBCO/BRL, Grand Island, N.Y.) supplemented with 10% charcoal-stripped fetal bovine serum (Hyclone, Logan, Utah), Penicillin (100 unit/ml)/Streptomycin ([…]), 2 mML-glutamine and 1 mM sodium Pyruvate. 24 hrs later, the cells were transfected with three plasmids by using Superfect transfection kit (Qiagen, Valencia, Calif.). For the detection of hER activity, cells were transfected with 2 g hER expression plasmid (pCMV-ER ), 6 g luciferase reporter plasmid containing estrogen receptor response element (PGL-TATA-Luc), and 600 ng normalization control, β-galactosidase reporter plasmid (pCMV ). For the detection of hER activity, cells were transfected with 3 ug hER expression plasmid (pcDNA3.1-hER), 6 g luciferase reporter plasmid containing estrogen receptor response element (PGL-TATA-Luc), and 600 ng pCMV. For determining the influence of ER's major coactivator in breast, AIB 1, 2 g pcDNA3.1-AIB1 was added into the transfection plasmid solution mentioned previously.
The transfected cells were rinsed with PBS and treated with various concentrations of test molecules and one […] (vehicle, DMSO or methanol) in phenol red-free culture medium. After incubation for further 24 hrs, the cells were washed with PBS and lysed with lysis buffer (Pierce, Rockford, Ill.). The lysate was used to determine the luciferase activity for ER's activity and the β-galactosidase activity for the normalization of transfection efficiency.
For the luciferase activity assay, 20 μl of lysate and 100 μl luciferase assay buffer (Promega, Madison, Wis.) were added into a well of 96-well plate. The luminescence was detected by using luminescence microplate reader, LumiCount (Packard, Boston, Mass.). For the β-galactosidase activity assay, […] β-galactosidase assay buffer (Clontech, Palo Alto, Calif.) were added into a well of 96-well plate. The β-galactosidase activity was measured as luminescence strength by using luminescence microplate reader, LumiCount (Packard, Boston, Mass.). The normalized reporter activity was calculated by the luciferase activity divided by that of β-galactosidase.
The transient transfection reporter assay was used to determine the estrogenic or antiestrogenic activity of tested compounds in employed human breast cancer cells, MCF-7 cells that are cotransfected with hERα expression and reporter plasmids. […] […] The estrogenic (antiestrogenic) activity was determined by dividing the luciferase activity by the β-galactosidase activity. To determine the influence of estrogen receptor's major coactivator in breast cancer, AIB1, for the compounds' estrogenic activity, the expression vector of AIB1 was additionally cotransfected with the plasmids mentioned above.

| Relative Binding Affinity [1] | Relative Estrogenic Activity [3] | estrogenic effect [3] | Relative Antiestrogenic Activity at 2.5 μM [3] | antiestrogenic / inhibition activity [3] | Structure (SMILES) | inhibition effects against MCF-7 cell proliferation [2] | activity at 5 µM [2] [%] | binding affinity for hER compared with tamoxifen [1] | inhibition of MCF-7 cell proliferation ([2]; relative to DMSO) [%] |
| --- | --- | --- | --- | --- | --- | --- | --- | --- | --- |
| 0.192 | 0.78 | do not exert any estrogenic effects | 0.79 | – | CCCCNC(=O)CCCCCCCCCCOCC1Cc2ccccc2CN1C(=O)c1cccc(OC)c1 (stereo not shown) [Compound 4] | slightly lower inhibition effects than compound 6 | 70 | – | – |
| 5.0 | 1.03 | do not exert any estrogenic effects | 0.44 | strongest inhibition activity | CCCCNC(=O)CCCCCCCCCCOCC1Cc2ccccc2CN1C(=O)c1cccc(O)c1 (stereo not shown) [Compound 6] | strongest inhibition effects | 62 | highest binding affinity and higher than tamoxifen | 38 |
| 1.79 | 2.05 | highest estrogenic effect | 0.76 | moderate antiestrogenic activity | CCCCNC(=O)CCCCCCCCCCOCC1Cc2ccccc2CN1C(=O)c1ccc(O)cc1 (stereo not shown) [Compound 7] | – | 95 | highest binding affinity and higher than tamoxifen | – |
